# From ChEMBL document CHEMBL3885881, “DrugMatrix”
# Species: Rattus norvegicus
# Format: toxicity, organism-based, Sprague-Dawley
# Settings: in vivo, po, 24 h, route oral GAVAGE, time 1 day, vehicle 100 % SALINE; for ABSOLUTE BASOPHIL / ABSOLUTE EOSINOPHIL / ABSOLUTE LYMPHOCYTE / ABSOLUTE MONOCYTE / BASOPHIL / EOSINOPHIL / ERYTHROCYTE COUNT / HEMATOCRIT / HEMOGLOBIN / LEUKOCYTE COUNT / LYMPHOCYTE / MEAN CORPUSCULAR HEMOGLOBIN / MEAN CORPUSCULAR HEMOGLOBIN CONCENTRATION / MEAN CORPUSCULAR VOLUME / MONOCYTE / NEUTROPHIL / PLATELET COUNT: tissue Blood
# [1] = 0 mg/kg, vehicle control, dose level Control
# [2] = 0 mg/kg, vehicle control, tissue Plasma, dose level Control
# [3] = 2 mg/kg, tissue Plasma, dose level High
# Description: DrugMatrix - Regimen: Single
compound,measurement,setting,value
COc1cccc2c1C(=O)c1c(O)c3c(c(O)c1C2=O)C[C@@](O)(C(C)=O)C[C@@H]3O[C@H]1C[C@H](N)[C@H](O)[C@H](C)O1 [DAUNORUBICIN],ABSOLUTE BASOPHIL,[1],73.3 cells/µL
same,ABSOLUTE EOSINOPHIL,[1],86.7 cells/µL
same,ABSOLUTE LYMPHOCYTE,[1],8400 cells/µL
same,ABSOLUTE MONOCYTE,[1],350 cells/µL
same,BASOPHIL,[1],0.63%
same,EOSINOPHIL,[1],0.73%
same,ERYTHROCYTE COUNT,[1],6.55 x10E6/uL
same,HEMATOCRIT,[1],42.83%
same,HEMOGLOBIN,[1],13.6 G/DL
same,LEUKOCYTE COUNT,[1],11.33 x10E3/uL
same,LYMPHOCYTE,[1],74.77%
same,MEAN CORPUSCULAR HEMOGLOBIN,[1],20.77 pg
same,MEAN CORPUSCULAR HEMOGLOBIN CONCENTRATION,[1],31.7 G/DL
same,MEAN CORPUSCULAR VOLUME,[1],65.53 fL
same,MONOCYTE,[1],3%
same,NEUTROPHIL,[1],20.2%
same,PLATELET COUNT,[1],1394.33 x10E3/uL
same,ALANINE AMINOTRANSFERASE,[2],34 u/L
same,ALBUMIN,[2],4.03 G/DL
same,ALKALINE PHOSPHATASE,[2],345.33 u/L
same,ASPARTATE AMINOTRANSFERASE,[2],69.67 u/L
same,BLOOD UREA NITROGEN,[2],14.33 mg/dL
same,CARBON DIOXIDE,[2],46 mmol/L
same,CHLORIDE,[2],102.67 MEQ/L
same,CHOLESTEROL,[2],85 mg/dL
same,CREATINE PHOSPHOKINASE,[2],292 u/L
same,CREATININE,[2],0.2 mg/dL
same,GLUCOSE,[2],168 mg/dL
same,LIPASE,[2],13 u/L
same,PHOSPHORUS,[2],11.2 mg/dL
same,POTASSIUM,[2],7.07 MEQ/L
same,SODIUM,[2],144.67 MEQ/L
same,TOTAL BILIRUBIN,[2],0.27 mg/dL
same,TOTAL PROTEIN,[2],6.57 G/DL
same,URIC ACID,[2],0.73 mg/dL
same,ABSOLUTE BASOPHIL,"2 mg/kg, dose level High",30 cells/µL
same,ABSOLUTE EOSINOPHIL,"2 mg/kg, dose level High",60 cells/µL
same,ABSOLUTE LYMPHOCYTE,"2 mg/kg, dose level High",7160 cells/µL
same,ABSOLUTE MONOCYTE,"2 mg/kg, dose level High",260 cells/µL
same,BASOPHIL,"2 mg/kg, dose level High",0.33%
same,EOSINOPHIL,"2 mg/kg, dose level High",0.67%
same,ERYTHROCYTE COUNT,"2 mg/kg, dose level High",6.43 x10E6/uL
same,HEMATOCRIT,"2 mg/kg, dose level High",42.57%
same,HEMOGLOBIN,"2 mg/kg, dose level High",13.5 G/DL
same,LEUKOCYTE COUNT,"2 mg/kg, dose level High",9.23 x10E3/uL
same,LYMPHOCYTE,"2 mg/kg, dose level High",77.03%
same,MEAN CORPUSCULAR HEMOGLOBIN,"2 mg/kg, dose level High",21.03 pg
same,MEAN CORPUSCULAR HEMOGLOBIN CONCENTRATION,"2 mg/kg, dose level High",31.73 G/DL
same,MEAN CORPUSCULAR VOLUME,"2 mg/kg, dose level High",66.3 fL
same,MONOCYTE,"2 mg/kg, dose level High",2.83%
same,NEUTROPHIL,"2 mg/kg, dose level High",18.5%
same,PLATELET COUNT,"2 mg/kg, dose level High",1328.67 x10E3/uL
same,ALANINE AMINOTRANSFERASE,[3],37.33 u/L
same,ALBUMIN,[3],3.93 G/DL
same,ALKALINE PHOSPHATASE,[3],397.67 u/L
same,ASPARTATE AMINOTRANSFERASE,[3],67.67 u/L
same,BLOOD UREA NITROGEN,[3],13.67 mg/dL
same,CARBON DIOXIDE,[3],39.33 mmol/L
same,CHLORIDE,[3],104.67 MEQ/L
same,CHOLESTEROL,[3],84 mg/dL
same,CREATINE PHOSPHOKINASE,[3],230.33 u/L
same,CREATININE,[3],0.27 mg/dL
same,GLUCOSE,[3],179 mg/dL
same,LACTATE DEHYDROGENASE,[3],60.33 u/L
same,LIPASE,[3],9.67 u/L
same,PHOSPHORUS,[3],11.57 mg/dL
same,POTASSIUM,[3],6.13 MEQ/L
same,SODIUM,[3],146 MEQ/L
same,TOTAL BILIRUBIN,[3],0.2 mg/dL
same,TOTAL PROTEIN,[3],6.37 G/DL
same,URIC ACID,[3],1 mg/dL
